SMILES strings stand for the structures.

The source of these data is patent US20230167073A1 (Teijin Pharma Limited, priority 2020, published 2023).

For this experiment, the target named is T1, Human TRPC6 (Homo sapiens, UniProt Q9Y210).
T1 construct: expressed in transfected cells
T1 sequence (Q9Y210 1-931): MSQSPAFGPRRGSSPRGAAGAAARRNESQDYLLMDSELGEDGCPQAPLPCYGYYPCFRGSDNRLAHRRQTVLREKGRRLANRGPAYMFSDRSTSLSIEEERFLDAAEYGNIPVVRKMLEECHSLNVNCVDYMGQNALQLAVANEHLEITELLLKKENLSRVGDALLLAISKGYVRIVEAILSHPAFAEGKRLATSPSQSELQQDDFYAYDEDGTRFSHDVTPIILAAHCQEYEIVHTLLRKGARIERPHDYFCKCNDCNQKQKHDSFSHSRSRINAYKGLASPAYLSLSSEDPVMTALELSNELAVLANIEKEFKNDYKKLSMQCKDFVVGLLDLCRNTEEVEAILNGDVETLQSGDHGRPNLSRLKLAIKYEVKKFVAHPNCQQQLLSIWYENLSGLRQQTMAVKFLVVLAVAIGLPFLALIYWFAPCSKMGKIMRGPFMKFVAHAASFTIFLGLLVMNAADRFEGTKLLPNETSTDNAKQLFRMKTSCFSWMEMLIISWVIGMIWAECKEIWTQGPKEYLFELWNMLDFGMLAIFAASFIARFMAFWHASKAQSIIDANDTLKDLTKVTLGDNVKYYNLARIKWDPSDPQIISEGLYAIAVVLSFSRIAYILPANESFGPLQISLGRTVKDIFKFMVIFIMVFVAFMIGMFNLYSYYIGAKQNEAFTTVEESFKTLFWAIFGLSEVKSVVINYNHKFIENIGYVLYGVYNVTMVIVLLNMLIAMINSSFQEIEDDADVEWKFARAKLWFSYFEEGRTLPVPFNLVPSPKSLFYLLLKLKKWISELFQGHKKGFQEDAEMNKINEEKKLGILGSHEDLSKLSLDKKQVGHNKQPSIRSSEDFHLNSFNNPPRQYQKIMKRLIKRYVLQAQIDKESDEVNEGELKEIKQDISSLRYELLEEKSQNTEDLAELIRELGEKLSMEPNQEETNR
Description: Evaluation of TRPC6 channel inhibitory activity (1), FLIPR Calcium 5 Assay Kit, OAG stimulation (Compound Nos. 1-1293). The conditions noted are these: Human TRPC6 stably-expressing cells, OAG 30 μM, FLIPR Calcium 5 Assay Kit; read-out: Inhibitory activity (pIC50 class) (converted). It is filed as cell-based. An outline of the steps: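 Cells stably expressing human TRPC6, plated 24 h before, were loaded 30 min with Calcium 5 dye plus probenecid in HEPES-HBSS. Compound was added 20 min before OAG (30 μM final) and fluorescence tracked on FLIPR. Inhibition normalised to no-compound and no-compound/no-OAG wells; pIC50 from four-parameter fit, reported as +/++/+++ categories.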
As to `CC(C)(C)COc1cc(Oc2cc(C#N)ccc2-c2ccc(CCN)cc2)cnn1` [Compound 108, 4-[4-(2-aminoethyl)phenyl]-3-[6-(2,2-dimethylpropoxy)pyridazin-4-yl]oxybenzonitrile], the IC50 was 10 to 1000 nM.

As for `CC(C)CNc1cc(Sc2cc(C#N)ccc2-c2ncc(CN)cn2)cnn1` [compound 1273, 4-[5-(aminomethyl)pyrimidin-2-yl]-3-[6-(2-methylpropylamino)pyridazin-4-yl]sulfanylbenzonitrile], the IC50 is 10 to 1000 nM. For `N#Cc1ccc(-c2ccc(CCN)cc2)c(Cn2cnc(-c3ccccc3)c2)c1` [compound 1111, 4-[4-(2-aminoethyl)phenyl]-3-[(4-phenylimidazol-1-yl)methyl]benzonitrile], the IC50 is 10 to 1000 nM. With `Cn1ccc(-c2cc(Oc3cc(C#N)ccc3-c3ncc(CN)cn3)n(C)n2)n1` [compound 946, 4-[5-(aminomethyl)pyrimidin-2-yl]-3-[2-methyl-5-(1-methylpyrazol-3-yl)pyrazol-3-yl]oxybenzonitrile] the figure was 10 to 1000 nM. For the compound `Cn1nc(C2CCOCC2)cc1Oc1cc(C#N)ccc1-c1ccc(CCN)cn1` [Compound 227, 4-[5-(2-aminoethyl)pyridin-2-yl]-3-[2-methyl-5-(oxan-4-yl)pyrazol-3-yl]oxybenzonitrile], the IC50 is below 10 nM.

Take `Cc1sc(N2CCOCC2)nc1C(=O)c1cc(C#N)ccc1-c1ncc(CCN)cn1` [compound 1070, 4-[5-(2-aminoethyl)pyrimidin-2-yl]-3-(5-methyl-2-morpholin-4-yl-1,3-thiazole-4-carbonyl)benzonitrile]: the IC50 was above 1000 nM. Regarding `CC(=O)Nc1ccccc1-c1cc(Oc2cc(C#N)ccc2-c2ccc(CCN)cc2)cnn1` [Compound 119, N-[2-[5-[2-[4-(2-aminoethyl)phenyl]-5-cyanophenoxy]pyridazin-3-yl]phenyl]acetamide], the IC50 was above 1000 nM. Regarding `Cc1cc(Oc2cc(C#N)ccc2-c2ncc(CN)cn2)cc(NC2CC2)n1` [compound 646, 4-[5-(aminomethyl)pyrimidin-2-yl]-3-[2-(cyclopropylamino)-6-methylpyridin-4-yl]oxybenzonitrile], the IC50 was 10 to 1000 nM.

With `CCCc1cc(Oc2cc(C#N)ccc2-c2ncc(CCN)cn2)n(C)n1` [Compound 260, 4-[5-(2-aminoethyl)pyrimidin-2-yl]-3-(2-methyl-5-propylpyrazol-3-yl)oxybenzonitrile], the IC50 is below 10 nM. With `COCCN(C)c1cc(Oc2cc(C#N)ccc2-c2ccc(CCN)cn2)cc(C)n1` [compound 459, 4-[5-(2-aminoethyl)pyridin-2-yl]-3-[2-[2-methoxyethyl(methyl)amino]-6-methylpyridin-4-yl]oxybenzonitrile] the figure was below 10 nM. With `Cn1nc(C2CC2)cc1Oc1cc(C#N)ccc1-c1ccc(C(=O)CN)cc1` [Compound 214, 4-[4-(2-aminoacetyl)phenyl]-3-(5-cyclopropyl-2-methylpyrazol-3-yl)oxybenzonitrile] the figure was 10 to 1000 nM. Turning to `Cc1cc(Oc2cc(C#N)ccc2-c2ccc([C@H](O)CN)cn2)cc(-c2cnccn2)n1` [compound 693, 4-[5-[(1S)-2-amino-1-hydroxyethyl]pyridin-2-yl]-3-(2-methyl-6-pyrazin-2-ylpyridin-4-yl)oxybenzonitrile], the IC50 was 10 to 1000 nM. With `Cc1nc(Oc2cc(C#N)ccc2-c2ccc(C(C)CN)cc2)cc(N2CCOCC2)n1` (stereo not shown) [Compound 62, 4-[4-(1-aminopropan-2-yl)phenyl]-3-(2-methyl-6-morpholin-4-ylpyrimidin-4-yl)oxybenzonitrile] the figure was below 10 nM; with `Cn1nc(C2CC2)cc1Oc1cc(C#N)ccc1-c1cc(C(O)CN)c(Cl)cn1` (stereo not shown) [compound 518, 4-[4-(2-amino-1-hydroxyethyl)-5-chloropyridin-2-yl]-3-(5-cyclopropyl-2-methylpyrazol-3-yl)oxybenzonitrile], 10 to 1000 nM.

With `Cc1nc(Oc2cc(C#N)ccc2-c2ccc(C(O)CN)c(F)c2)cc(N2CCOCC2)n1` (stereo not shown) [Compound 149, 4-[4-(2-Amino-1-hydroxyethyl)-3-fluorophenyl]-3-(2-methyl-6-morpholin-4-ylpyrimidin-4-yl)oxybenzonitrile], the IC50 is below 10 nM. With `N#Cc1ccc(-c2ncc(CCN)cn2)c(C(=O)c2sc(N3CCOCC3)nc2C(F)(F)F)c1` [compound 1078, 4-[5-(2-aminoethyl)pyrimidin-2-yl]-3-[2-morpholin-4-yl-4-(trifluoromethyl)-1,3-thiazole-5-carbonyl]benzonitrile] the figure was below 10 nM; with `CC(C)NC(=O)c1cn(Cc2cc(C#N)ccc2-c2ccc(CCN)cc2)cn1` [compound 1113, 1-[[2-[4-(2-aminoethyl)phenyl]-5-cyanophenyl]methyl]-N-propan-2-ylimidazole-4-carboxamide], above 1000 nM; with `N#Cc1ccc(-c2ncc(CCN)cn2)c(C(=O)c2cnn(-c3ccccn3)c2)c1` [compound 1037, 4-[5-(2-aminoethyl)pyrimidin-2-yl]-3-(1-pyridin-2-ylpyrazole-4-carbonyl)benzonitrile], below 10 nM. Regarding `CCc1cc(Oc2cc(C#N)ccc2-c2ncc(OCCN)cn2)n(C)n1` [compound 386, 4-[5-(2-aminoethoxy)pyrimidin-2-yl]-3-(5-ethyl-2-methylpyrazol-3-yl)oxybenzonitrile], the IC50 was 10 to 1000 nM.

In the case of `N#Cc1ccc(-c2ncc(CN)cn2)c(Sc2cnnc(N3CCCCC3)c2)c1` [compound 1268, 4-[5-(aminomethyl)pyrimidin-2-yl]-3-(6-piperidin-1-ylpyridazin-4-yl)sulfanylbenzonitrile], the IC50 was 10 to 1000 nM. For the compound `Cn1nc(-c2ccncn2)cc1Oc1cc(C#N)ccc1-c1ncc(CCN)cn1` [compound 949, 4-[5-(2-aminoethyl)pyrimidin-2-yl]-3-(2-methyl-5-pyrimidin-4-ylpyrazol-3-yl)oxybenzonitrile], the IC50 was below 10 nM. With `N#Cc1ccc(-c2ncc(CN)cn2)c(Oc2cc(Cl)nnc2N2CCCCC2)c1` [compound 816, 4-[5-(aminomethyl)pyrimidin-2-yl]-3-(6-chloro-3-piperidin-1-ylpyridazin-4-yl)oxybenzonitrile] the figure was above 1000 nM; with `Cn1nc(-c2ccccc2)cc1Oc1cc(C#N)ccc1-c1ncc2c(n1)CCNC2` [Compound 292, 3-(2-methyl-5-phenylpyrazol-3-yl)oxy-4-(5,6,7,8-tetrahydropyrido[4,3-d]pyrimidin-2-yl)benzonitrile], 10 to 1000 nM. With `Cc1ccc(-c2cn(Cc3cc(C#N)ccc3-c3ccc(CCN)cn3)cn2)cc1` [compound 1146, 4-[5-(2-aminoethyl)pyridin-2-yl]-3-[[4-(4-methylphenyl)imidazol-1-yl]methyl]benzonitrile], the IC50 was 10 to 1000 nM.

For `N#Cc1ccc(-c2ncc(CCN)cn2)c(Oc2nnc(-c3cccnc3)s2)c1` [compound 729, 4-[5-(2-aminoethyl)pyrimidin-2-yl]-3-[(5-pyridin-3-yl-1,3,4-thiadiazol-2-yl)oxy]benzonitrile], the IC50 is 10 to 1000 nM. With `N#Cc1ccc(-c2ncc(CCN)cn2)c(Oc2cnnc(N3CCCCC3)c2)c1` [compound 619, 4-[5-(2-aminoethyl)pyrimidin-2-yl]-3-(6-piperidin-1-ylpyridazin-4-yl)oxybenzonitrile], the IC50 was below 10 nM. As for `CCCN(CCC)c1cc(Oc2cc(C#N)ccc2-c2ccc(CCN)cc2)nc(C)n1` [Compound 16, 4-[4-(2-aminoethyl)phenyl]-3-[6-(dipropylamino)-2-methylpyrimidin-4-yl]oxybenzonitrile], the IC50 is 10 to 1000 nM. As for `Cc1cc(Oc2cc(C#N)ccc2-c2ccc(CCCN)cc2)cc(N2CCOCC2)n1` [compound 578, 4-[4-(3-aminopropyl)phenyl]-3-(2-methyl-6-morpholin-4-ylpyridin-4-yl)oxybenzonitrile], the IC50 is 10 to 1000 nM. On to `CC(C)Cc1cn(Cc2cc(C#N)ccc2-c2ncc(CN)cn2)nn1` [compound 1188, 4-[5-(aminomethyl)pyrimidin-2-yl]-3-[[4-(2-methylpropyl)triazol-1-yl]methyl]benzonitrile], for which the IC50 was 10 to 1000 nM. With `Cc1nc(Oc2cc(C#N)ccc2-c2ccc(CC(C)(C)N)cc2)cc(N2CCOCC2)n1` [Compound 247, 4-[4-(2-amino-2-methylpropyl)phenyl]-3-(2-methyl-6-morpholin-4-ylpyrimidin-4-yl)oxybenzonitrile] the figure was below 10 nM. As for `Cn1nc(Oc2cc(C#N)ccc2-c2ccc(CCN)cn2)cc1N1CCOCC1` [compound 557, 4-[5-(2-aminoethyl)pyridin-2-yl]-3-(1-methyl-5-morpholin-4-ylpyrazol-3-yl)oxybenzonitrile], the IC50 was 10 to 1000 nM.
